These are literature values, as cited in patent US20060234982A1 (priority 2003, published 2006).

SMILES strings stand for the structures.

One series deals with HIV-1. As to conditions: in vitro, with recombinant soluble CD4, castanospermine or recombinant interferon-α.
The test system of the next series is HBV. As to conditions: variety of cell types.
Experiment in series [1]: not given
The source holds these as a separate data set.

Setting [2] is: relative to tenofovir, HIV in culture.

In the case of `Cc1cn([C@H]2C[C@H](N=[N+]=[N-])[C@@H](CO)O2)c(=O)[nH]c1=O` [AZT, 3′-azido, 3′-deoxythymidine], the “antiviral activity in combination” value in the series with HIV-1 is “synergistic antiviral activity”.

For the molecule `CC(C)OC(=O)[C@H](C)N[P@](=O)(CO[C@H](C)Cn1cnc2c(N)ncnc21)Oc1ccccc1` [GS-7340, 9-[(R)-2-[[(S)-[[(S)-1-(isopropoxycarbonyl)ethyl]amino]phenoxyphosphinyl]methoxy]propyl]adenine], where the note is “dogs and rhesus monkeys”, the “hydrolysis in lymphatic tissue” value is on record as “selectively hydrolyzed inside lymphatic tissue” and the plasma stability result is on record as “stable in plasma”. Also, the oral bioavailability (dogs and rhesus monkeys, oral) is 20%. Moreover, the tissue distribution result (in vivo and in vitro characterization, selective intracellular activation) is reported as “preferential distribution in lymphatic tissues”. In the series on HBV, the “effectiveness against HBV in vitro” value is “effective”. In the series on HIV (setting [2]), the “fold more effective than tenofovir against HIV in culture” value is recorded as 100 fold and the “times more effective than tenofovir against HIV in culture” value was 1000 times. Also, the “S-configuration (at phosphorus) diastereomer more effective than R-configuration diastereomer” value in the series on HIV (relative to the diastereomer with R-configuration at P) is reported as 10 fold. Besides, in the series with HIV (variety of cell types), the “effectiveness against HIV in vitro” value is “effective”.

`C[C@H](Cn1cnc2c(N)ncnc21)OCP(=O)(O)O` [Tenofovir, (R)-9-(2-phosphonylmethoxypropyl)adenine]: the pKa (usually the pH at which an ionisable group is half protonated) in series [1] was 3.8.
